The subject of experiment [1] is Muscarinic acetylcholine receptor M3 (Rattus norvegicus), P08483 [A91C,T549C]. Kind of experiment: Inhibition of disulfide bond cross-linking in rat M3'(3C)-Xa receptor A91C/T549C mutant expressed in african green monkey COS7 cells at 1 mM by Western blotting. Format: cell-based. Conditions: COS-7. A general note: Immunoblotting shows a protein as a band on a membrane.

Experiment [2] has as its system Muscarinic acetylcholine receptor M3 (Rattus norvegicus), P08483 [F92C,F550C]. In words: Inhibition of disulfide bond cross-linking in rat M3'(3C)-Xa receptor F92C/F550C mutant expressed in african green monkey COS7 cells at 1 mM by Western blotting. Format: cell-based. To be noted: COS-7.
The test system of experiment [3] is Muscarinic acetylcholine receptor M3 (Rattus norvegicus), P08483 [A91C,T549C]. Kind of experiment: Stimulation of disulfide bond cross-linking formation in rat M3'(3C)-Xa receptor A91C/T549C mutant expressed in african green monkey COS7 cells by scanning densitometry relative to control. Format: cell-based. To be noted: COS-7.
Experiment [4] concerns Muscarinic acetylcholine receptor M3 (Rattus norvegicus), P08483 [F92C,F550C]. Kind of experiment: Stimulation of disulfide bond cross-linking formation in rat M3'(3C)-Xa receptor F92C/F550C mutant expressed in african green monkey COS7 cells by scanning densitometry relative to control. Type of experiment: cell-based. To be noted: COS-7.
Experiment [5] deals with Muscarinic acetylcholine receptor M3 (Rattus norvegicus), P08483 [A91C,T549C]. In words: Enhancement of disulfide bond cross-linking formation in rat M3'(3C)-Xa receptor A91C/T549C mutant expressed in african green monkey COS7 cells at 100 nM by Western blotting. Type of experiment: cell-based. To be noted: COS-7.
Experiment [6] relates to Muscarinic acetylcholine receptor M3 (Rattus norvegicus), P08483 [F92C,F550C]. Kind of experiment: Inverse agonist activity at rat M3'(3C)-Xa receptor F92C/F550C mutant expressed in african green monkey COS7 cells assessed as reduction in basal inositol monophosphate accumulation at 10 uM. Type of experiment: functional, cell-based. To be noted: COS-7.
Experiment [7] relates to Muscarinic acetylcholine receptor M3 (Rattus norvegicus), P08483 [A91C,T549C]. In words: Inverse agonist activity at rat M3'(3C)-Xa receptor A91C/T549C mutant expressed in african green monkey COS7 cells assessed as reduction in basal inositol monophosphate accumulation at 10 uM. Format: functional, cell-based. Conditions: COS-7.
The test system of a further experiment is COS-7. Kind of experiment: Inverse agonist activity at rat M3'(3C)-Xa receptor expressed in african green monkey COS7 cells assessed as reduction in basal inositol monophosphate accumulation at 10 uM. Format: functional, cell-based.
The subject of experiment [8] is Muscarinic acetylcholine receptor M3 (Rattus norvegicus), P08483 [F92C,F550C]. Kind of experiment: Enhancement of disulfide bond cross-linking formation in rat M3'(3C)-Xa receptor F92C/F550C mutant expressed in african green monkey COS7 cells at 100 nM by Western blotting. To be noted: COS-7. Format: cell-based.
Experiment [9] is described as follows: Agonist activity at rat M3'(3C)-Xa receptor expressed in african green monkey COS7 cells assessed as increase in myo-[3H]inositol hydrolysis. Type of experiment: functional, cell-based. Conditions: COS-7.
Experiment [10] in a line: Displacement of [3H]NMS from rat M3'(3C)-Xa receptor expressed in african green monkey COS7 cells. Type of experiment: cell-based. To be noted: cos-7. On the technique in general: Loss of bound radioactivity is the signal in a displacement assay; it reports binding, not function.

The source made the active and inactive calls. The rule behind the calls is not given here.

Sequence of Muscarinic acetylcholine receptor M3 (Rattus norvegicus), P08483 [F92C,F550C] (P08483 whole entry F92C/F550C): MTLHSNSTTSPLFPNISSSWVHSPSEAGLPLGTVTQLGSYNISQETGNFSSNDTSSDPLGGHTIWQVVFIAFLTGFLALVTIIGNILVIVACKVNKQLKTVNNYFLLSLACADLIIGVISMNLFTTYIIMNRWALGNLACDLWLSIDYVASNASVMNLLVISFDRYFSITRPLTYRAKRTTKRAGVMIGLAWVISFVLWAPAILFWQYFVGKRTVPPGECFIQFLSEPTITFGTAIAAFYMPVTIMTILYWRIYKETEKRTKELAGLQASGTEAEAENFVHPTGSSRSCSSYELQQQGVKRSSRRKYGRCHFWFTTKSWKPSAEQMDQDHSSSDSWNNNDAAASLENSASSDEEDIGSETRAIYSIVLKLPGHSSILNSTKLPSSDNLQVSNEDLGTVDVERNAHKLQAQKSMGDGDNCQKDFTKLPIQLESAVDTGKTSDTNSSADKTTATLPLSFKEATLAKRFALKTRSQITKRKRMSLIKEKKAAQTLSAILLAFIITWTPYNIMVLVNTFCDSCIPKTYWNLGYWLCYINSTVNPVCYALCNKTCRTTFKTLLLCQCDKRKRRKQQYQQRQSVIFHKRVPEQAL
Sequence of Muscarinic acetylcholine receptor M3 (Rattus norvegicus), P08483 [A91C,T549C] (P08483 whole entry A91C/T549C): as the sequence (P08483 whole entry F92C/F550C) above, with A91C, C92F, T549C, C550F counted along it

On to `C[N+](C)(C)CC#CCN1CCCC1=O`, for which the outcome in [1] and in experiment [2] was Active.
In the case of `C[N+]1(C)[C@@H]2C[C@@H](OC(=O)[C@H](CO)c3ccccc3)C[C@H]1[C@@H]1O[C@@H]12`, the results for the maximal effect (Emax) in experiment [3] and in [4] were 244% and 192%, respectively. Further, the result (in experiment [5]; in experiment [6]; in experiment [7]; in the experiment with COS-7; in [8]) was Active.
For `CN1[C@@H]2CC[C@H]1C[C@@H](OC(=O)C(CO)c1ccccc1)C2` (stereo partly specified), the result (in experiment [5]; in the experiment with COS-7; in experiment [8]) was Active.
On to `C[N+](C)(C)CCOC(N)=O` [CARBACHOL], for which, in [9], the EC50 (usually the midpoint of the concentration-response curve) was 0.063 µM. The result in experiment [1] and in experiment [2] was Active. In experiment [10], the Ki (usually the dissociation constant of the complex between target and ligand, obtained from inhibition or displacement) is 23.1 µM.

Values taken from ChEMBL document CHEMBL1156485, “Distinct structural changes in a G protein-coupled receptor caused by different classes of agonist ligands” (J Biol Chem, 2007).
